The text below walks through data of patent publication US9120812B2, “Pyrimidooxazocine derivatives as mTOR-inhibitors” (SANOFI, priority 2012, dated 2015).

Test [1] deals with mTOR (human recombinant aa mTOR 1360-2549) (Homo sapiens (Human), UniProt P42345). Description: mTOR enzymatic test by TR-FRET (phosphorylation of GFP-4EBP1). Type of test: biochemical. The method in brief: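 TR-FRET detection of GFP-4EBP1 phosphorylation by a terbium-labelled anti-phospho-Thr46 antibody. Kinase reaction ran 30 min at room temperature, was quenched with EDTA (10 mM final) plus Tb-antibody (2 nM final) and left 60 min. Emission at 520 and 490 nm after 340 nm excitation, reported as the 520/490 ratio.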
(Time-resolved FRET reads energy transfer from a long-lived donor to a nearby acceptor.)

A further test relates to U87MG tumour cells. Description: Test of in vitro proliferation of U87MG tumour cells. As to conditions: Homo sapiens, U-87 MG, 72 h, U87MG cells, 72 hours; read-out: U87 Cell Proliferation IC50. Type of test: cell-based. Here is the method:
Model 4: Test of in vitro Proliferation of U87MG Tumour Cells.
The cell growth is determined with the reagent CellTiter 96 AQueous One Solution Cell Proliferation Assay from Promega (Cat. No. G3581).

For the next test, the target named is PI3Kα (p110α/p85α) (Homo sapiens (Human), UniProt P42336). The test is described as follows: PI3Kα enzymatic test by measuring the consumption of ATP. Type of test: biochemical. The gist of the method:
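p110α/p85α (1.7 μg/ml) with 50 μM PIP2 and 2 μM ATP in pH 7.5 Tris buffer with EGTA, MgCl2, Chaps, DTT; reaction 90 min. Remaining ATP measured by luciferin/luciferase luminescence; IC50 from threefold serial dilutions spanning at least 10 000-fold.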

The subject of another test is Akt-pS473 in U87MG cells. The conditions noted are these: Homo sapiens, U-87 MG, read-out: U87 Akt-pS473 % Inhibition or IC50, nM (IC50), U87MG cells.

Some results are limits rather than exact numbers.

Chain of PI3Kα (p110α/p85α) (P42336 whole entry): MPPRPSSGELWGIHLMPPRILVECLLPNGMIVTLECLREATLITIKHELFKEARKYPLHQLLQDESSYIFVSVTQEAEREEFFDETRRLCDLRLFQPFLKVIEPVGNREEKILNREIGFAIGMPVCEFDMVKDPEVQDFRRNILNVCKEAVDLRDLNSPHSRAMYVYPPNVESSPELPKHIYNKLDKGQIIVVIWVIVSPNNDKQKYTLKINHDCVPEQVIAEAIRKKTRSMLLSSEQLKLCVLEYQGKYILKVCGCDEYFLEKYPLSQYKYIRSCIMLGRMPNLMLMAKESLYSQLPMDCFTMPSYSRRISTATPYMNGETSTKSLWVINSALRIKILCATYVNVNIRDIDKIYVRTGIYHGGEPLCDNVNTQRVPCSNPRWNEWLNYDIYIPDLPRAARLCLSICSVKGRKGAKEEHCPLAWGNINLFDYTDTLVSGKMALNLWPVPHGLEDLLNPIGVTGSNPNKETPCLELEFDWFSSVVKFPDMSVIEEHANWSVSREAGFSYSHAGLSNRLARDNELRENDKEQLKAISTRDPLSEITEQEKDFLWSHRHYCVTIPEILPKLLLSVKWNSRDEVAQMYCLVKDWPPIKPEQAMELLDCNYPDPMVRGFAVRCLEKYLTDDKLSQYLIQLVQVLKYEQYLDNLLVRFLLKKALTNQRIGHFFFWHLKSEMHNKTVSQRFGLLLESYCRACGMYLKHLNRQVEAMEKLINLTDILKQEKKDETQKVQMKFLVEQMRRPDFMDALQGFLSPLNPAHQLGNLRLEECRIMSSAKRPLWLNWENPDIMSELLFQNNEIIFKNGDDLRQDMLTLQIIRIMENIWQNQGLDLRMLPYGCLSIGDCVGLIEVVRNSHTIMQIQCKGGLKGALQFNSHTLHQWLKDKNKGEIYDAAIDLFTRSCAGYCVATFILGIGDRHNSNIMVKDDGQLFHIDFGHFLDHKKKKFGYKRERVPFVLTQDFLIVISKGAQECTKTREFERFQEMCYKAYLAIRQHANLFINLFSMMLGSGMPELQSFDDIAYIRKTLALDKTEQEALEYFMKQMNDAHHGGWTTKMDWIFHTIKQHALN
Chain of PI3Kα (p110α/p85α) (P27986 whole entry partner): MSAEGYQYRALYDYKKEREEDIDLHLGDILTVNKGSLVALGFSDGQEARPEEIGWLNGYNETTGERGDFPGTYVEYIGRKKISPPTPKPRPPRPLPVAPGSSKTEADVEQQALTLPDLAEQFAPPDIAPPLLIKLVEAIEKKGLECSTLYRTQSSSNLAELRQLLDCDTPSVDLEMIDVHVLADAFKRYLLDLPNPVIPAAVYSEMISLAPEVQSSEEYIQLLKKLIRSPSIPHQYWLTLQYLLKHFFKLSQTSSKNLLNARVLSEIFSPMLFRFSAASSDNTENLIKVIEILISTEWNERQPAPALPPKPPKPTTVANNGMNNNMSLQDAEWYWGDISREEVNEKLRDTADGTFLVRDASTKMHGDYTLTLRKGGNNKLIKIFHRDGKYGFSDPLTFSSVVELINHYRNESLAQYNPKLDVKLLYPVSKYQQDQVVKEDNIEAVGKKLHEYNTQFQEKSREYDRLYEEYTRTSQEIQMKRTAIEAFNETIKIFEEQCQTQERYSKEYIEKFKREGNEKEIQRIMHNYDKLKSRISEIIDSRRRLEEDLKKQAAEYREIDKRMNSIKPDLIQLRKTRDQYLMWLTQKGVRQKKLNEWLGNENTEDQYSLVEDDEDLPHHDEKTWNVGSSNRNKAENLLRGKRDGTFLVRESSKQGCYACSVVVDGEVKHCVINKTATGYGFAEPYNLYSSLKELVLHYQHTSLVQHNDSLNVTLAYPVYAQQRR
Chain of mTOR (human recombinant aa mTOR 1360-2549) (P42345 1360-2549): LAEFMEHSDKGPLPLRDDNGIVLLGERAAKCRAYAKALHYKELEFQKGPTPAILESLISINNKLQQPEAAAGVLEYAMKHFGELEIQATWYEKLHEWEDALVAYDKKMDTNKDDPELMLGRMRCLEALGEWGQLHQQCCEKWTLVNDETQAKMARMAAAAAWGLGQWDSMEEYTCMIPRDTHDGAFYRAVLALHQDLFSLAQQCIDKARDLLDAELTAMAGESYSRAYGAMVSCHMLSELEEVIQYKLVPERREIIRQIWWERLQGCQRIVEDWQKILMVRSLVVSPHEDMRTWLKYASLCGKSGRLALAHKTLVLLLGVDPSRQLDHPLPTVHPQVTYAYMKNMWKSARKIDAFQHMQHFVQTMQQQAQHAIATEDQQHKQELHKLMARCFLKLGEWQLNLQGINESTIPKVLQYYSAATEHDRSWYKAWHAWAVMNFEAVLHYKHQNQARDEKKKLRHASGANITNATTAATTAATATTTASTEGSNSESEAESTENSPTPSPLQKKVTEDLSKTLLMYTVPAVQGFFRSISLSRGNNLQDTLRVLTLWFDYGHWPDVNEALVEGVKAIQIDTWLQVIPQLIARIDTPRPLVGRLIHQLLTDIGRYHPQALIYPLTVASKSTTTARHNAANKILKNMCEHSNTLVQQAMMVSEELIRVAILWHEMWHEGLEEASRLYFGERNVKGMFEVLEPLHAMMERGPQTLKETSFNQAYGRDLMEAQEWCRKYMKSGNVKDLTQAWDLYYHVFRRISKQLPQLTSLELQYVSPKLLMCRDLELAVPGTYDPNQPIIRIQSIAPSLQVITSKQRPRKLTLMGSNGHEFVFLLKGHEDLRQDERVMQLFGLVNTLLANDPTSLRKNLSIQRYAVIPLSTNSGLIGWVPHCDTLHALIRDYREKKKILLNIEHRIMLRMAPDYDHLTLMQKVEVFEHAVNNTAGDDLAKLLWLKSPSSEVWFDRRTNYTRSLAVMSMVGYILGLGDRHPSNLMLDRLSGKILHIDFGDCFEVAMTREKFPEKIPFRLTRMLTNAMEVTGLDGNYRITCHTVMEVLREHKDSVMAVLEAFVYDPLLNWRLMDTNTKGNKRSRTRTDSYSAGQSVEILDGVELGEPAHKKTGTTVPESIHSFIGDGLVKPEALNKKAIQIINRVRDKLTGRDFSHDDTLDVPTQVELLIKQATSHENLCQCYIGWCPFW

As for `CCN1CC(C)(C)Oc2nc(N3CCOC[C@@H]3C)nc(-c3ccc(NC(=O)Nc4ccc(N5CCOCC5(C)C)nc4)c(F)c3)c2C1=O` [Example 256, 1-[6-(3,3-Dimethylmorpholin-4-yl)pyridin-3-yl]-3-{4-[6-ethyl-8,8-dimethyl-2-((S)-3-methylmorpholin-4-yl)-5-oxo-5,6,7,8-tetrahydro-9-oxa-1,3,6-triazabenzocyclohepten-4-yl]-2-fluorophenyl}urea], the results for the IC50 (in test [1]; in the test with U87MG tumour cells; with Akt-pS473 in U87MG cells) were 196 nM, 83 nM and 42 nM, respectively. Also, at PI3Kα (p110α/p85α), the “PI3Ka IC50” value is reported as 199 nM.
As for `CCN1CC(C)(C)Oc2nc(N3C4CCC3COC4)nc(-c3ccc(NC(=O)Nc4ccc(N5CCOCC5(C)C)nc4)c(F)c3)c2C1=O` [Example 257, 1-[6-(3,3-Dimethylmorpholin-4-yl)pyridin-3-yl]-3-{4-[6-ethyl-8,8-dimethyl-2-(3-oxa-8-azabicyclo[3.2.1]oct-8-yl)-5-oxo-5,6,7,8-tetrahydro-9-oxa-1,3,6-triazabenzocyclohepten-4-yl]-2-fluorophenyl}urea], the IC50 in test [1] was 142 nM; in the test with U87MG tumour cells, 63 nM; in the test with Akt-pS473 in U87MG cells, 46 nM. Also, the “PI3Ka IC50” value at PI3Kα (p110α/p85α) is on record as more than 10000 nM.
As to `CCN1CC(C)(C)Oc2nc(N3CCOC[C@@H]3C)nc(-c3ccc(NC(=O)Nc4ccc(N5CC6CCC(C5)O6)nc4)c(F)c3)c2C1=O` [Example 258, 1-{4-[6-Ethyl-8,8-dimethyl-2-((S)-3-methylmorpholin-4-yl)-5-oxo-5,6,7,8-tetrahydro-9-oxa-1,3,6-triazabenzocyclohepten-4-yl]-2-fluorophenyl}-3-[6-(8-oxa-3-azabicyclo[3.2.1]oct-3-yl)pyridin-3-yl]urea], the IC50 in test [1] was found to be 53 nM; in the test on U87MG tumour cells, 125 nM; in the test with Akt-pS473 in U87MG cells, 20 nM. Also, the “PI3Ka IC50” value on PI3Kα (p110α/p85α) worked out at 2940 nM.
`CCN1CC(C)(C)Oc2nc(N3C4CCC3COC4)nc(-c3ccc(NC(=O)Nc4ccc(N5CC6CCC(C5)O6)nc4)c(F)c3)c2C1=O` [Example 259, 1-{4-[6-Ethyl-8,8-dimethyl-2-(3-oxa-8-azabicyclo[3.2.1]oct-8-yl)-5-oxo-5,6,7,8-tetrahydro-9-oxa-1,3,6-triazabenzocyclohepten-4-yl]-2-fluorophenyl}-3-[6-(8-oxa-3-azabicyclo[3.2.1]oct-3-yl)pyridin-3-yl]urea]: the IC50 in test [1] was found to be 87 nM; in the test with U87MG tumour cells, 87 nM; in the test with Akt-pS473 in U87MG cells, 16 nM. The “PI3Ka IC50” value at PI3Kα (p110α/p85α) is given as more than 10000 nM.
As for `CCN1CC(C)(C)Oc2nc(N3CC4CCC(C3)O4)nc(-c3ccc(NC(=O)Nc4ccnc(N5CC6CCC(C5)O6)c4)c(F)c3)c2C1=O` [Example 260, 1-{4-[6-Ethyl-8,8-dimethyl-2-(8-oxa-3-azabicyclo[3.2.1]oct-3-yl)-5-oxo-5,6,7,8-tetrahydro-9-oxa-1,3,6-triazabenzocyclohepten-4-yl]-2-fluorophenyl}-3-[2-(8-oxa-3-azabicyclo[3.2.1]oct-3-yl)pyridin-4-yl]urea], the values for the IC50 (in test [1]; with U87MG tumour cells; in the test on Akt-pS473 in U87MG cells) were 174 nM, 95 nM and 24 nM, respectively. The “PI3Ka IC50” value on PI3Kα (p110α/p85α) is given as more than 10000 nM.
